Measured values reported in PubChem BioAssay (NCI).
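Results reflect a 48-hour exposure of cells in 96-well plates to compound at five concentrations. GI50: concentration for 50% inhibition of growth. TGI: total growth inhibition.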

Columns and labels:
Experiment in all cases: inhibition of tumour cell growth, NCI panel, 48 h
[1] = tested on: UACC-257 melanoma
[2] = tested on: COLO 205 colon
[3] = tested on: EKVX NSCLC
[4] = tested on: SF-295 CNS
[5] = tested on: UO-31 renal
[6] = tested on: RPMI-8226 leukemia
[7] = tested on: NCI-H226 lung
[8] = tested on: DU-145 prostate
[9] = tested on: HOP-62 NSCLC
[10] = tested on: DMS 273 small cell lung
[11] = tested on: M19-MEL melanoma

Structure (SMILES) | TGI [1] [µM] | TGI [2] [µM] | TGI [3] [µM] | TGI [4] [µM] | TGI [5] [µM] | TGI [6] [µM] | TGI [7] [µM] | TGI [8] [µM] | TGI [9] [µM] | TGI [10] [µM] | TGI [11] [µM] | GI50 [4] [µM]
CCN1CCC(O)(/C=C/c2ccc(OC)cc2)C(C(=O)/C=C/c2ccc(OC)cc2)C1 (stereo unspecified) | 30.9 | 20.6 | 26.4 | 29.2 | 21.5 | 44.8 | 29.7 | 22.8 | 33.4 | – | – | –
C[C@H]1COC2=C1C(=O)C(=O)c1c2ccc2c1CCCC2(C)C | 6.46 | 4.19 | 71.7 | 3.73 | 14.3 | 71.2 | 24.1 | 2.08 | 21.2 | – | – | –
[N-]=[N+]=Nc1c([N+](=O)[O-])c(=O)n2c3c(cccc13)CCC2 | 21.5 | 20.9 | 41.8 | > 100 | 28.4 | 11.5 | 51.9 | 38.7 | > 100 | – | – | –
Oc1cc(Br)cc2cc(Cl)cnc12 | > 100 | > 54.9 | 45.2 | > 48 | 17.4 | 26 | 64.4 | > 55.5 | > 60.4 | – | – | –
COc1cc(CS(=O)c2ccc(O)cc2)cc(OC)c1OC (stereo unspecified) | > 100 | > 100 | > 100 | > 100 | > 100 | > 100 | > 100 | > 100 | > 100 | – | – | –
CCCCCCCCCCCCCC(=O)N(CCCCCCCCC)CC(O)C(O)C(OC1OC(CO)C(O)C(O)C1O)C(O)CO (stereo unspecified) | 32.1 | 37.3 | 34.5 | 41.2 | 34.5 | 52.1 | 34.3 | 30.6 | 47.4 | – | – | –
OC1C[C@H](c2ccccc2)C2(C(O)c3ccccc3C2O)[C@@H](c2ccccc2)C1 (stereo partly specified) | > 100 | > 100 | > 100 | > 100 | > 100 | > 100 | > 100 | > 100 | > 100 | – | – | –
O=C(O)C(=O)/C=C(\O)c1ccc(Br)cc1 | > 100 | > 100 | 82.1 | > 100 | > 100 | > 100 | > 100 | > 100 | > 100 | – | – | –
COc1ccc2c(c1)OC[C@@H]1c3cc(O)c(OCc4ccccc4)cc3O[C@H]21 | 51.4 | 74.1 | 60.1 | > 100 | 75.9 | 49 | 95.7 | – | > 100 | > 100 | 95.5 | –
Brc1ccc2c(-c3csc(-c4c[nH]c5ccccc45)n3)c[nH]c2c1 | 50.7 | 25.4 | 36.1 | 29.5 | 27.6 | 46.6 | 34 | 32.9 | 30.8 | – | – | 14.6
C[N+](C)(CCNC(=O)c1cccc2cc3ccccc3nc12)Cc1ccc([N+](=O)[O-])s1 | > 25 | > 25 | > 25 | > 25 | > 25 | > 25 | > 25 | > 25 | > 25 | – | – | –
CC(=O)/C(=C/N1CCNC1=S)C(=O)Nc1ccccc1C | > 100 | > 100 | > 100 | > 100 | > 100 | > 100 | > 100 | > 100 | > 100 | – | – | –
COc1ccc(C[C@H](N)C(=O)N2C[C@@H](CO)C[C@@H](n3ccc(=O)[nH]c3=O)C2)cc1 | – | > 100 | > 100 | – | > 100 | > 100 | > 100 | – | > 100 | > 100 | > 100 | –
COc1ccc(N2NC(c3ccccc3)(c3ccccc3)C(C)C2=O)cc1 (stereo unspecified) | > 100 | 34 | > 100 | > 100 | > 100 | > 100 | > 100 | > 100 | > 100 | – | – | –
COc1ccc(N2C(=O)C3c4[nH]c5ccccc5c4C4CCCCC4C3C2=O)cc1 (stereo unspecified) | > 100 | > 100 | 37.7 | 36 | > 100 | > 100 | > 100 | – | 35.8 | 23.9 | > 100 | –
CCOC(=O)/C=C(\C(=O)OCC)n1ccc(=O)[nH]c1=O | 12.3 | 8.24 | 34.9 | > 100 | 31.1 | 34.4 | > 39.1 | > 76.9 | 53.6 | – | – | –
C=C(C)CNC(=S)N(N)c1ccc2ccccc2c1 | > 100 | > 100 | 88.9 | > 100 | > 100 | > 100 | > 100 | > 100 | > 100 | – | – | –
Cc1ccc([N+](=O)[O-])c2c(NCC(O)CO)ccnc12 (stereo unspecified) | > 100 | 75.1 | > 100 | 73.9 | > 100 | > 100 | > 100 | > 100 | > 100 | – | – | –
COc1ccc(Nc2nc(N)c(C(=O)c3cccs3)s2)cc1 | 31.3 | 21.6 | > 75 | > 100 | > 41.1 | 21.7 | 19.2 | 36.3 | > 67.7 | – | – | –
Cc1c(C(=O)O)n2cnnc2c2ccccc12 | > 100 | > 100 | > 100 | > 100 | > 100 | > 100 | > 100 | > 100 | > 100 | – | – | –
Cc1ccc(CCC(=O)C(=O)O)s1 | > 100 | > 100 | > 100 | > 100 | > 100 | > 100 | – | – | > 100 | > 100 | > 100 | –
